Columns and labels:
[1] = molecular target: T1, NHE3 (UniProt P48764); assay: Cell-based NHE3 activity under transient conditions (BCECF-AM intracellular pH, FLIPR); parameters: species or system Rat or Human; conditions: opossum kidney cells expressing NHE3, read-out: Cell-based NHE3 inhibition IC50 (uM) under transient conditions
T1 sequence (P48764 1-834): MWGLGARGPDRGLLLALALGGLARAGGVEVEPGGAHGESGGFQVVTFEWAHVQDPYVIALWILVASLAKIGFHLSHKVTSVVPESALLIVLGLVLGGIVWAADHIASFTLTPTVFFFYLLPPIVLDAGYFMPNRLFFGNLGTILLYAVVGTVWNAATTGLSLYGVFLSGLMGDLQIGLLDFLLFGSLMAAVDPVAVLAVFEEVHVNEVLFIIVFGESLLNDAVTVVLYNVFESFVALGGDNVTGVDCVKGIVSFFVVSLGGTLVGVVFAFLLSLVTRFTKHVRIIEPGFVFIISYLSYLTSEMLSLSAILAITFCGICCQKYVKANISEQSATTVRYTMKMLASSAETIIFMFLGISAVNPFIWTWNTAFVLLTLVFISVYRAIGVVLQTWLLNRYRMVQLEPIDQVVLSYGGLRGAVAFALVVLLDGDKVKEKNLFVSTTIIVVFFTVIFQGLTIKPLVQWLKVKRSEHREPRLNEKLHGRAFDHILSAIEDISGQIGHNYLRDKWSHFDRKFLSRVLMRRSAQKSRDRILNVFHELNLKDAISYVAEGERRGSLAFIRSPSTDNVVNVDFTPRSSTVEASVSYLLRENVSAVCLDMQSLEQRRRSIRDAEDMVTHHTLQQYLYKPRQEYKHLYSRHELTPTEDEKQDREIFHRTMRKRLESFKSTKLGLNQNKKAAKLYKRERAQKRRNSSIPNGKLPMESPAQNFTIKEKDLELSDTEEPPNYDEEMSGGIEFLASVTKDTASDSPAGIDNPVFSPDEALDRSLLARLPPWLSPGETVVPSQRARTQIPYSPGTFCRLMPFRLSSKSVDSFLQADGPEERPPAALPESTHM
Excerpt: (§1) Opossum kidney (OK) cells were obtained from ATCC and cultured and expanded according to its instructions. OK monoclonal stable cell lines expressing the Rat NHE3 (Gene Bank registration number: M85300) protein and OK monoclonal stable cell lines expressing the Human NHE3 (Gene Bank registration number: NM_004174.1) protein were constructed by lentivirus infection.
The general procedure of the cell-based NHE3 activity experiments under transient conditions (transient inhibition) was based on an adaptation method of the pH-sensitive dye method originally reported by Tisen (Proc. Natl. Acad. Sci. USA) (1984) 81(23):7436-7440) to measure rat NHE3-mediated Na+-dependent reverse H+ transport, and was optimized according to the instructions “Measuring Intracellular pH With the FLIPR and FLIPR 384 Fluorometric Imaging Plate Reader Systems” published by Molecular Devices. The specific method was: Rat NHE3 OK monoclonal cells or Human NHE3 OK monoclonal cells were inoculated into 384-well plates and grew overnight. The medium was aspirated from the wells and the cells were washed twice with FLIPR buffer (Hank's BSS 1×, 20 mM HEPES, 1% BSA) followed by incubation with FLIPR buffer (Hank's BSS 1×, 20 mM HEPES, 1% BSA) containing […] BCECF-AM (Invitrogen) for 45 min at room temperature. Subsequently, […] of 200 mM NH4Cl-HEPES buffer (Hank's BSS 1×, 20 mM HEPES, 200 mM NH4Cl) was added and the cells were incubated for 15-20 minutes at room temperature. Cells were washed twice with 20 mM NH4Cl-HEPES buffer (Hank's BSS 1×, 20 mM HEPES, 20 mM NH4Cl). NHE3-mediated pH sensitization in cells was normalized by addition of containing 0.4 mM amiloride (EIPA) and […] test compound or Na-HEPES buffer (100 mM NaCl, 50 mM HEPES, 10 mM glucose, 5 mM KCl, 2 mM CaCl2), 1 mM MgCl2, pH 7.4) and monitoring of BCECF-AM fluorescence at λem 535 nm excitated by λex 440 nm and λex 490 nm respectively. Ratio=fluorescence value (λex 490 nm)/fluorescence value (λex 440 nm) was set, the average value of the Ratio difference between the end time and the start time between the duplicate wells was calculated, the average value and the concentration value of the compound were drawn, and Graphpad Prism software was used to estimate IC50 value.

[2] = molecular target: T1, NHE3; assay: Cell-based NHE3 activity under persistent conditions (60 min pre-incubation, compound removed); parameters: species or system Rat or Human; conditions: opossum kidney cells expressing NHE3, read-out: Cell-based NHE3 inhibition IC50 (uM) under persistent conditions
Excerpt: as §1
The general procedure of the cell-based NHE3 activity assay under persistent conditions (persistent inhibition) was: Rat NHE3 OK monoclonal cells or Human NHE3 OK monoclonal cells were inoculated into 384-well plates and grew overnight. The medium was aspirated from the wells and the cells were washed twice with FLIPR buffer (Hank's BSS 1×, 20 mM HEPES, 1% BSA) followed by the addition of Na-HEPES buffer containing […] test compound (100 mM NaCl, 50 mM HEPES, 10 mM glucose, 5 mM KCl, 2 mM CaCl2, 1 mM MgCl2, pH 7.4) and incubated for 60 minutes at room temperature. The compounds were aspirated from the wells and incubated with FLIPR buffer (Hank's BSS 1×, 20 mM HEPES, 1% BSA) containing […] BCECF-AM (Invitrogen) for 45 minutes at room temperature. Subsequently, […] of 200 mM NH4Cl-HEPES buffer (Hank's BSS 1×, 20 mM HEPES, 200 mM NH4Cl) was added and incubated for 15-20 minutes at room temperature. The cells were washed twice with 20 mM NH4Cl-HEPES buffer (Hank's BSS 1×, 20 mM HEPES, 20 mM […]). […] Ratio=fluorescence value (λex 490 nm)/fluorescence value (λex 440 nm) was set, the average value of the Ratio difference between the end time and the start time between the duplicate wells was calculated, the average value and the concentration value of the compound were drawn, and the dose-response-inhibition (four parameters) equation was used to estimate EC50 value by GraphpadPrism.

| IC50 ([1]; embodiment compounds) | IC50 [2] | IC50 ([1]; intermediates) | SMILES |
| --- | --- | --- | --- |
| 0.93 µM | 0.45 µM |  | CN1Cc2c(Cl)cc(Cl)cc2C(c2ccc3c(c2)CN(CCOCCOCCNC(=O)NCCCCNC(=O)NCCOCCOCCN2Cc4cc(C5CN(C)Cc6c(Cl)cc(Cl)cc65)ccc4C2=O)C3=O)C1 (centres unmarked) [Embodiment B4] |
| 0.22 µM | 0.59 µM |  | CN1Cc2c(Cl)cc(Cl)cc2C(c2ccc3c(c2)S(=O)(=O)N(CCOCCOCCNC(=O)NCCCCNC(=O)NCCOCCOCCN2CCc4ccc(C5CN(C)Cc6c(Cl)cc(Cl)cc65)cc4S2(=O)=O)CC3)C1 (centres unmarked) [Embodiment C1] |
|  |  | 1.63 µM | CN1Cc2c(Cl)cc(Cl)cc2C(c2cccc3c2CNS3(=O)=O)C1 (centres unmarked) [Intermediate A2-13] |
|  |  | 0.53 µM | CN1Cc2c(Cl)cc(Cl)cc2C(c2ccc3c(c2)C(=O)NC3)C1 (centres unmarked) [Intermediate B1-6] |
| 0.43 µM | 0.5 µM |  | CN1Cc2c(Cl)cc(Cl)cc2C(c2ccc3c(c2)S(=O)(=O)N(CCOCCOCCNC(=O)NCCCCNC(=O)NCCOCCOCCN2Cc4ccc(C5CN(C)Cc6c(Cl)cc(Cl)cc65)cc4S2(=O)=O)C3)C1 (centres unmarked) [Embodiment A1] |
| 0.77 µM | 0.41 µM |  | CN1Cc2c(Cl)cc(Cl)cc2C(c2ccc3c(c2)C(=O)N(CCOCCOCCNC(=O)NCCCCNC(=O)NCCOCCOCCN2CCc4ccc(C5CN(C)Cc6c(Cl)cc(Cl)cc65)cc4C2=O)CC3)C1 (centres unmarked) [Embodiment B3] |
| 2.05 µM |  |  | CN1Cc2c(Cl)cc(Cl)cc2C(c2cccc3c2CN(CCOCCOCCNC(=O)NCCCCNC(=O)NCCOCCOCCN2Cc4c(cccc4C4CN(C)Cc5c(Cl)cc(Cl)cc54)C2=O)C3=O)C1 (centres unmarked) [Embodiment B2] |
|  |  | 0.6 µM | CN1Cc2c(Cl)cc(Cl)cc2C(c2ccc3c(c2)S(=O)(=O)NC3)C1 (centres unmarked) [Intermediate A1-13] |
| 0.28 µM | 0.02 µM |  | CN1Cc2c(Cl)cc(Cl)cc2C(c2ccc3cn(CCOCCOCCNC(=O)NCCCCNC(=O)NCCOCCOCCn4cc5ccc(C6CN(C)Cc7c(Cl)cc(Cl)cc76)cc5n4)nc3c2)C1 (centres unmarked) [Embodiment D1-P1] |
| 0.06 µM | 0.05 µM |  | CN1Cc2c(Cl)cc(Cl)cc2C(c2ccc3c(c2)S(=O)(=O)N(CCOCCOCCNC(=O)NCCCCNC(=O)NCCOCCOCCN2C=Cc4ccc(C5CN(C)Cc6c(Cl)cc(Cl)cc65)cc4S2(=O)=O)C=C3)C1 (centres unmarked) [Embodiment E1] |
| 0.26 µM | 0.08 µM |  | CN1Cc2c(Cl)cc(Cl)cc2C(c2ccc3c(c2)C(=O)N(CCOCCOCCOCCNC(=O)[C@@H](O)[C@@H](O)C(=O)NCCOCCOCCOCCN2Cc4ccc(C5CN(C)Cc6c(Cl)cc(Cl)cc65)cc4C2=O)C3)C1 (some centres unmarked) [Embodiment J3] |
|  |  | 3.17 µM | CN1Cc2c(Cl)cc(Cl)cc2C(c2ccc3c(c2)S(=O)(=O)NC=C3)C1 (centres unmarked) [Intermediate E1-9] |
|  |  | 0.17 µM | CN1Cc2c(Cl)cc(Cl)cc2C(c2cccc3c2CNC3=O)C1 (centres unmarked) [Intermediate B2-6] |
| 0.19 µM | 0.13 µM |  | CN1Cc2c(Cl)cc(Cl)cc2C(c2ccc3c(c2)C(=O)N(CCOCCOCCOCCNC(=O)CCC(N)(CCC(=O)NCCOCCOCCOCCN2Cc4ccc(C5CN(C)Cc6c(Cl)cc(Cl)cc65)cc4C2=O)CCC(=O)NCCOCCOCCOCCN2Cc4ccc(C5CN(C)Cc6c(Cl)cc(Cl)cc65)cc4C2=O)C3)C1 (centres unmarked) [Embodiment I3] |
|  |  | 1.24 µM | CN1Cc2c(Cl)cc(Cl)cc2C(c2ccc3c(c2)S(=O)(=O)NCC3)C1 (centres unmarked) [Intermediate C1-11] |
| 0.25 µM | 0.05 µM |  | CN1Cc2c(Cl)cc(Cl)cc2C(c2ccc3c(c2)C(=O)N(CCOCCOCCNC(=O)[C@H](O)[C@H](O)[C@@H](O)[C@@H](O)C(=O)NCCOCCOCCN2Cc4ccc(C5CN(C)Cc6c(Cl)cc(Cl)cc65)cc4C2=O)C3)C1 (some centres unmarked) [Embodiment J4] |
| 0.52 µM | 0.02 µM |  | CN1Cc2c(Cl)cc(Cl)cc2C(c2ccc3c(c2)C(=O)N(CCOCCOCCNC(=O)NCCCCNC(=O)NCCOCCOCCN2Cc4ccc(C5CN(C)Cc6c(Cl)cc(Cl)cc65)cc4C2=O)C3)C1 (centres unmarked) [Embodiment B1] |
| 0.32 µM | 0.05 µM |  | CN1Cc2c(Cl)cc(Cl)cc2C(c2ccc3c(c2)C(=O)N(CCOCCOCCOCCNC(=O)[C@H](O)[C@@H](O)C(=O)NCCOCCOCCOCCN2Cc4ccc(C5CN(C)Cc6c(Cl)cc(Cl)cc65)cc4C2=O)C3)C1 (some centres unmarked) [Embodiment J2] |
| 0.91 µM | 0.64 µM |  | CN1Cc2c(Cl)cc(Cl)cc2C(c2ccc3c(c2)C(=O)N(CCOCCOCCNC(=O)CN(CCN(CC(=O)O)CC(=O)NCCOCCOCCN2Cc4ccc(C5CN(C)Cc6c(Cl)cc(Cl)cc65)cc4C2=O)CC(=O)O)C3)C1 (centres unmarked) [Embodiment F1] |
|  |  | 1.69 µM | CN1Cc2c(Cl)cc(Cl)cc2C(c2ccc3cc[nH]c(=O)c3c2)C1 (centres unmarked) [Intermediate B5-6] |
| 3.14 µM |  |  | CN1Cc2c(Cl)cc(Cl)cc2C(c2cccc3c2CN(CCOCCOCCNC(=O)NCCCCNC(=O)NCCOCCOCCN2Cc4c(C5CN(C)Cc6c(Cl)cc(Cl)cc65)cccc4S2(=O)=O)S3(=O)=O)C1 (centres unmarked) [Embodiment A2] |
| 0.62 µM | 0.08 µM |  | CN1Cc2c(Cl)cc(Cl)cc2C(c2ccc3c(c2)C(=O)N(CCOCCOCCOCCNC(=O)CN(CCN(CC(=O)O)CC(=O)NCCOCCOCCOCCN2Cc4ccc(C5CN(C)Cc6c(Cl)cc(Cl)cc65)cc4C2=O)CC(=O)O)C3)C1 (centres unmarked) [Embodiment F2] |
|  |  | 1.44 µM | CN1Cc2c(Cl)cc(Cl)cc2C(c2ccc3cn[nH]c3c2)C1 (centres unmarked) [Intermediate D1-7] |
| 0.93 µM | 0.1 µM |  | CN1Cc2c(Cl)cc(Cl)cc2C(c2ccc3c(c2)C(=O)N(CCOCCOCCNC(=O)O[C@@H]2COC4C2OC[C@H]4OC(=O)NCCOCCOCCN2Cc4ccc(C5CN(C)Cc6c(Cl)cc(Cl)cc65)cc4C2=O)C3)C1 (some centres unmarked) [Embodiment G1] |
|  |  | 0.79 µM | CN1Cc2c(Cl)cc(Cl)cc2C(c2ccc3c(c2)CNC3=O)C1 (centres unmarked) [Intermediate B4-6] |
| 0.74 µM | 0.56 µM |  | CN1Cc2c(Cl)cc(Cl)cc2[C@H](c2cccc(S(=O)(=O)NCCOCCOCCNC(=O)NCCCCNC(=O)NCCOCCOCCNS(=O)(=O)c3cccc([C@@H]4CN(C)Cc5c(Cl)cc(Cl)cc54)c3)c2)C1 [Tenapanor, reference compound] |

— patent US20240082406A1, “BENZOHETEROCYCLE SUBSTITUTED TETRAHYDROISOQUINOLINE COMPOUND” (SHANGHAI JEMINCARE PHARMACEUTICAL CO., LTD, priority 2020, published 2024)
